From US20170239323A1, “ORITAVANCIN FORMULATIONS” (The Medicines Company, priority 2016, published 2017)

Assay: pH adjustment of oritavancin/HPCD solution with 1N NaOH: visual observations
Assay type: physicochemical
Protocol: Reconstituting Orbactiv 400 mg (Oritavancin) in 20% w/v HPCD, diluting in saline then adjusting pH. The 50 mg/mL solution of oritavancin in 20% w/v HPCD (described in Table 3) was further diluted in 0.9% saline to 6 mg/mL in a small glass vial. The pH was adjusted using 1N NaOH. NaOH was added to the oritavancin solution in […] and vortexed. Visual observations and pH were recorded (Table 5).
Reconstituting Orbactiv 400 mg (Oritavancin) in 50% w/v HPCD aqueous solution, adjusting pH then diluting in saline. 6.269 g of HPCD was dissolved in 12.538 mL of water to make a 50% w/v solution (pH=7.23). Seven (7) mL of the 50% w/v solution was added to a 400 mg vial of Orbactiv for a target oritavancin concentration of 57.14 mg/mL. […] A 2 mL aliquot of 57.14 mg/mL was removed from the vial and placed in a small glass vial. The pH was adjusted to 6.5 using 1N NaOH. NaOH was added to the oritavancin solution in 5 μL increments and vortexed. Visual observations and pH were recorded (Table 6).
Reconstituting Orbactiv 400 mg (Oritavancin) in 50% w/v aqueous HPCD, adjusting pH then diluting in saline. 6.112 g of HPCD was dissolved in 12.224 mL of water to make a 50% w/v solution (pH=6.74). Seven (7) mL of the 50% w/v HPCD solution was added to a 400 mg vial of Orbactiv for a target oritavancin concentration of 57.14 mg/mL. […] A 3 mL aliquot of 57.14 mg/mL was removed from the vial and placed in a small glass vial. The pH was adjusted to 7 using 1N NaOH. NaOH was added to the oritavancin solution in 5 μL increments and vortexed. Visual observations and pH were recorded (Table 8).
Reconstituting Orbactiv 400 mg (Oritavancin) in 20% w/v aqueous HPCD, adjusting pH then diluting in saline. 3.555 g of HPCD was dissolved in 17.775 mL of water to make a 20% w/v solution (pH=6.88). Seven (7) mL of the 20% w/v HPCD solution was added to a 400 mg vial of Orbactiv for a target oritavancin concentration of 57.14 mg/mL. […] A 3 mL aliquot of 57.14 mg/mL was removed from the vial and placed in a small glass vial. The pH was adjusted to 7 using 1N NaOH. NaOH was added to the oritavancin solution in 5 μL increments and vortexed. Visual observations and pH were recorded. (Table 10).

## CN[C@H](CC(C)C)C(=O)N[C@H]1C(=O)N[C@@H](CC(N)=O)C(=O)N[C@H]2C(=O)N[C@H]3C(=O)N[C@H](C(=O)N[C@H](C(=O)O)c4cc(O)cc(O)c4-c4cc3ccc4O)[C@H](O[C@H]3C[C@](C)(N)[C@@H](O)[C@H](C)O3)c3ccc(c(Cl)c3)Oc3cc2cc(c3O[C@@H]2O[C@H](CO)[C@@H](O)[C@H](O)[C@H]2O[C@H]2C[C@](C)(NCc3ccc(-c4ccc(Cl)cc4)cc3)[C@@H](O)[C@H](C)O2)Oc2ccc(cc2Cl)[C@H]1O [Oritavancin]
57 mg/mL in 20% w/v aqueous HPCD, over 24 hours
  pH to which solution could be adjusted without any sign of precipitation: 7
57 mg/mL in 50% w/v aqueous HPCD, over 24 hours
  pH to which solution could be adjusted without any sign of precipitation: 7
57 mg/mL in 50% w/v aqueous HPCD, over an hour
  pH to which solution could be adjusted without any sign of precipitation: 6.3
20% w/v HPCD reconstitution (3 mL aliquot), 1N NaOH 0 μL, pH 3.95, oritavancin 57.14 mg/mL
  Observations: Clear, colorless solution.
20% w/v HPCD reconstitution (3 mL aliquot), 1N NaOH 5 μL, pH 4.11, oritavancin 57.04 mg/mL
  Observations: Clear, colorless solution
20% w/v HPCD reconstitution (3 mL aliquot), 1N NaOH 10 μL, pH 4.31, oritavancin 56.94 mg/mL
  Observations: Clear, colorless solution
20% w/v HPCD reconstitution (3 mL aliquot), 1N NaOH 15 μL, pH 4.68, oritavancin 56.84 mg/mL
  Observations: Clear, colorless solution
20% w/v HPCD reconstitution (3 mL aliquot), 1N NaOH 20 μL, pH 4.89, oritavancin 56.74 mg/mL
  Observations: Clear, colorless solution
20% w/v HPCD reconstitution (3 mL aliquot), 1N NaOH 25 μL, pH 5.19, oritavancin 56.64 mg/mL
  Observations: Clear, colorless solution
20% w/v HPCD reconstitution (3 mL aliquot), 1N NaOH 30 μL, pH 5.29, oritavancin 56.54 mg/mL
  Observations: Clear, colorless solution
20% w/v HPCD reconstitution (3 mL aliquot), 1N NaOH 35 μL, pH 5.45, oritavancin 56.44 mg/mL
  Observations: Clear, colorless solution.
20% w/v HPCD reconstitution (3 mL aliquot), 1N NaOH 40 μL, pH 5.57, oritavancin 56.34 mg/mL
  Observations: Clear, colorless solution
20% w/v HPCD reconstitution (3 mL aliquot), 1N NaOH 45 μL, pH 5.63, oritavancin 56.23 mg/mL
  Observations: Clear, colorless solution
20% w/v HPCD reconstitution (3 mL aliquot), 1N NaOH 50 μL, pH 5.69, oritavancin 56.13 mg/mL
  Observations: Clear, colorless solution
20% w/v HPCD reconstitution (3 mL aliquot), 1N NaOH 55 μL, pH 5.82, oritavancin 56.03 mg/mL
  Observations: Clear, colorless solution
20% w/v HPCD reconstitution (3 mL aliquot), 1N NaOH 60 μL, pH 5.87, oritavancin 55.92 mg/mL
  Observations: Clear, colorless solution
20% w/v HPCD reconstitution (3 mL aliquot), 1N NaOH 65 μL, pH 5.95, oritavancin 55.82 mg/mL
  Observations: Clear, colorless solution.
20% w/v HPCD reconstitution (3 mL aliquot), 1N NaOH 70 μL, pH 6.01, oritavancin 55.71 mg/mL
  Observations: Clear, colorless solution
20% w/v HPCD reconstitution (3 mL aliquot), 1N NaOH 75 μL, pH 6.06, oritavancin 56.60 mg/mL
  Observations: Clear, colorless solution
20% w/v HPCD reconstitution (3 mL aliquot), 1N NaOH 80 μL, pH 6.10, oritavancin 55.49 mg/mL
  Observations: Clear, colorless solution
20% w/v HPCD reconstitution (3 mL aliquot), 1N NaOH 85 μL, pH 6.18, oritavancin 55.38 mg/mL
  Observations: Clear, colorless solution
20% w/v HPCD reconstitution (3 mL aliquot), 1N NaOH 90 μL, pH 6.20, oritavancin 55.28 mg/mL
  Observations: Clear, colorless solution
20% w/v HPCD reconstitution (3 mL aliquot), 1N NaOH 95 μL, pH 6.24, oritavancin 55.17 mg/mL
  Observations: Clear, colorless solution
20% w/v HPCD reconstitution (3 mL aliquot), 1N NaOH 100 μL, pH 6.28, oritavancin 55.06 mg/mL
  Observations: Clear, colorless solution
20% w/v HPCD reconstitution (3 mL aliquot), 1N NaOH 105 μL, pH 6.34, oritavancin 54.95 mg/mL
  Observations: Clear, colorless solution
20% w/v HPCD reconstitution (3 mL aliquot), 1N NaOH 110 μL, pH 6.38, oritavancin 54.85 mg/mL
  Observations: Clear, colorless solution
20% w/v HPCD reconstitution (3 mL aliquot), 1N NaOH 115 μL, pH 6.44, oritavancin 54.74 mg/mL
  Observations: Clear, colorless solution
20% w/v HPCD reconstitution (3 mL aliquot), 1N NaOH 120 μL, pH 6.49, oritavancin 54.64 mg/mL
  Observations: Clear, colorless solution.
20% w/v HPCD reconstitution (3 mL aliquot), 1N NaOH 125 μL, pH 6.52, oritavancin 54.52 mg/mL
  Observations: Clear, colorless solution
20% w/v HPCD reconstitution (3 mL aliquot), 1N NaOH 130 μL, pH 6.54, oritavancin 54.41 mg/mL
  Observations: Clear, colorless solution
20% w/v HPCD reconstitution (3 mL aliquot), 1N NaOH 135 μL, pH 6.57, oritavancin 54.30 mg/mL
  Observations: Clear, colorless solution
20% w/v HPCD reconstitution (3 mL aliquot), 1N NaOH 140 μL, pH 6.62, oritavancin 54.19 mg/mL
  Observations: Clear, colorless solution
20% w/v HPCD reconstitution (3 mL aliquot), 1N NaOH 145 μL, pH 6.65, oritavancin 54.09 mg/mL
  Observations: Clear, colorless solution
20% w/v HPCD reconstitution (3 mL aliquot), 1N NaOH 150 μL, pH 6.69, oritavancin 53.97 mg/mL
  Observations: Clear, colorless solution
20% w/v HPCD reconstitution (3 mL aliquot), 1N NaOH 155 μL, pH 6.72, oritavancin 53.86 mg/mL
  Observations: Clear, colorless solution
20% w/v HPCD reconstitution (3 mL aliquot), 1N NaOH 160 μL, pH 6.76, oritavancin 53.75 mg/mL
  Observations: Clear, colorless solution.
20% w/v HPCD reconstitution (3 mL aliquot), 1N NaOH 165 μL, pH 6.80, oritavancin 53.63 mg/mL
  Observations: Clear, colorless solution
20% w/v HPCD reconstitution (3 mL aliquot), 1N NaOH 170 μL, pH 6.82, oritavancin 53.51 mg/mL
  Observations: Clear, colorless solution
20% w/v HPCD reconstitution (3 mL aliquot), 1N NaOH 175 μL, pH 6.86, oritavancin 53.40 mg/mL
  Observations: Clear, colorless solution
20% w/v HPCD reconstitution (3 mL aliquot), 1N NaOH 180 μL, pH 6.90, oritavancin 53.28 mg/mL
  Observations: Clear, colorless solution
20% w/v HPCD reconstitution (3 mL aliquot), 1N NaOH 185 μL, pH 6.93, oritavancin 53.17 mg/mL
  Observations: Clear, colorless solution
20% w/v HPCD reconstitution (3 mL aliquot), 1N NaOH 190 μL, pH 6.98, oritavancin 53.05 mg/mL
  Observations: Clear, colorless solution
20% w/v HPCD reconstitution (3 mL aliquot), 1N NaOH 195 μL, pH 7.03, oritavancin 52.94 mg/mL
  Observations: Clear, colorless solution.
20% w/v HPCD reconstitution diluted in 0.9% saline, 1N NaOH 0 μL, pH 4.10, oritavancin 6.00 mg/mL
  Observations: Clear, colorless solution
20% w/v HPCD reconstitution diluted in 0.9% saline, 1N NaOH 5 μL, pH 5.33, oritavancin 5.99 mg/mL
  Observations: Clear, colorless solution
20% w/v HPCD reconstitution diluted in 0.9% saline, 1N NaOH 10 μL, pH 6.05, oritavancin 5.97 mg/mL
  Observations: Clear, colorless solution
20% w/v HPCD reconstitution diluted to 6 mg/mL in 0.9% saline
  pH at which adjusting with 1N NaOH caused visible precipitation: > 6
50% w/v HPCD reconstitution (2 mL aliquot), 1N NaOH 0 μL, pH 4.08, oritavancin 57.14 mg/mL
  Observations: Clear, colorless solution
50% w/v HPCD reconstitution (2 mL aliquot), 1N NaOH 5 μL, pH 4.26, oritavancin 57.10 mg/mL
  Observations: Clear, colorless solution
50% w/v HPCD reconstitution (2 mL aliquot), 1N NaOH 10 μL, pH 4.56, oritavancin 57.06 mg/mL
  Observations: Clear, colorless solution
50% w/v HPCD reconstitution (2 mL aliquot), 1N NaOH 15 μL, pH 4.90, oritavancin 57.02 mg/mL
  Observations: Clear, colorless solution
50% w/v HPCD reconstitution (2 mL aliquot), 1N NaOH 20 μL, pH 5.19, oritavancin 56.98 mg/mL
  Observations: Clear, colorless solution
50% w/v HPCD reconstitution (2 mL aliquot), 1N NaOH 25 μL, pH 5.39, oritavancin 56.94 mg/mL
  Observations: Clear, colorless solution
50% w/v HPCD reconstitution (2 mL aliquot), 1N NaOH 30 μL, pH 5.65, oritavancin 56.90 mg/mL
  Observations: Clear, colorless solution.
50% w/v HPCD reconstitution (2 mL aliquot), 1N NaOH 35 μL, pH 5.81, oritavancin 56.86 mg/mL
  Observations: Clear, colorless solution.
50% w/v HPCD reconstitution (2 mL aliquot), 1N NaOH 40 μL, pH 6.10, oritavancin 56.82 mg/mL
  Observations: Clear, colorless solution.
50% w/v HPCD reconstitution (2 mL aliquot), 1N NaOH 45 μL, pH 6.17, oritavancin 56.78 mg/mL
  Observations: Clear, colorless solution.
